The source of these data is patent publication US4667032A, “Phenothiazone derivatives and analogs” (Merck Frosst Canada, Inc., priority 1985, dated 1987).

Each structure is given as a SMILES string. ≈ marks a conversion by molar mass, not a printed value.

Experiment [1] has as its target T1, 5-Lipoxygenase (Rattus norvegicus, UniProt P12527).
T1 construct: Rat basophilic leukemia (RBL-1) cells were sonicated and centrifuged at 125000 xg; endogenous in cells; host or cells: RBL-1 (rat basophilic leukemia) cells, 125000 xg supernatant of sonicate
T1 sequence (P12527 1-673): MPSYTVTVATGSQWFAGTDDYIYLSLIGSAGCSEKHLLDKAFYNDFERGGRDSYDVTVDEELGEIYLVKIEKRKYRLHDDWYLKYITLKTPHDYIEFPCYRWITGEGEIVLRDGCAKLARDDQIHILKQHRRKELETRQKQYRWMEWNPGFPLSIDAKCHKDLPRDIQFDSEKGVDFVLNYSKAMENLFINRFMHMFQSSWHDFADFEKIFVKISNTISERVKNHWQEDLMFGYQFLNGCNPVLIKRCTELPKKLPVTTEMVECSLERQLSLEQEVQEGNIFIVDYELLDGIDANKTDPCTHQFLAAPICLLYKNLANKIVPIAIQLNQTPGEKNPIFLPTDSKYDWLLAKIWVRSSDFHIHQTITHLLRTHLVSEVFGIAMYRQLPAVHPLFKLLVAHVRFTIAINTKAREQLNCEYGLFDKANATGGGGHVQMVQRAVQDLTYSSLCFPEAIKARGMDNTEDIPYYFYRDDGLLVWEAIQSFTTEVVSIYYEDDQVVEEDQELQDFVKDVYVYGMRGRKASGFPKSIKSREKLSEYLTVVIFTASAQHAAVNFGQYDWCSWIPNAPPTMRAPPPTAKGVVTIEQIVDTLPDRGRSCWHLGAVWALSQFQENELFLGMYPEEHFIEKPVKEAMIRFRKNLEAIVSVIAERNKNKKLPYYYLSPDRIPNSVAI
Kind of experiment: RBL-1 5-Lipoxygenase. The class given is biochemical. The conditions noted are these: for IC50: Table 4, first part. The protocol: Rat basophilic leukemia (RBL-1) cells were sonicated and centrifuged at 125000 xg. The resulting supernatant fraction was incubated with arachidonic acid (labelled with ^14 C) to convert a portion of it to ^14 C-5(S)-hydroxyicosatetraenoic acid (5-HETE). Compounds being evaluated as inhibitors of 5-Lipoxygenase were added prior to the addition of arachidonic acid. 5-HETE was isolated by extraction and paper chromatography, and quantitated by determining the amount of radioactivity (cpm) associated with 5-HETE.
Reference: Egan, R. W., Tischler, A. M. Baptista, E. H., Ham, E. A., Soderman, D. D., and Gale, P. H., Advances in Prostaglandin, Thromboxane and Leukotriene Research 11 151 (1983), (Samuelson, B., Ramwell, P. W., and Paoletti, R. (eds.), Raven Press, N.Y.

For experiment [2], the system named is Mouse peritoneal macrophages. Kind of experiment: Mouse Macrophage Assay (leukotriene C4 / PGE2 / 6-keto PGF1α formation, zymosan stimulated). Type of experiment: cell-based. The note with it: Table 4, first part. The protocol:
Mouse peritoneal macrophages were treated sequentially with arachidonic acid (labelled with tritium); the compound being evaluated as an inhibitor, and a stimulator (zymosan). Metabolites derived from arachidonic acid PGE2 6-keto PH-F1α and leukotriene C4) were separated from the incubation medium by extraction and chromatography, and then quantitated by determining the amount of radioactivity (cpm) associated with each of them. […] (This protocol is identical to that described in the reference except that the radioactivity herein associated with the LTC4 was determined by counting an aliquot of the final aqueous solution directly rather than chromatographing it first).
Reference: Humes, J. L. et al., J. Biol. Chem. 257, 1591-4, (1982).

Experiment [3] deals with tracheal chain of sensitized guinea pigs. The experiment can be described thus: Antigen Challenge 'in vitro' Assay (egg albumin contraction of sensitized guinea pig tracheal chain). The protocol: Male guinea pigs weighing 300-350 g were sensitized by injecting (I.P.) 0.5 ml of a suspension containing 0.4 mg of egg albumin (Ovalbumin, Grade V, Sigma Chemical Co.) and 4.0 g aluminum hydroxide in 19.6 ml of saline. Two weeks were permitted for sensitization to occur.
Three sensitized guinea pigs were stunned and exsanguinated. The tracheas were removed, freed of adhering tissue and divided longitudinally by cutting through the cartilaginous tissue directly opposite the muscle insertion. Each opened trachea was then transected between every second cartilage. Four of the cut sections were tied together, end to end, in a series with No. 7 silk thread ensuring that the tracheal muscles were all in the same vertical plane. Thus, each chain consisted of tissue from three different animals.
The chain so formed was then suspended under 1 g of tension (by silk ties at each end) in a 20 ml organ bath containing 10 ml of modified* Krebs-Henseleit buffer solution gassed with 95% O2 and 5% CO2 at 37° C. Mepyramine (0.55 μg/ml) and indomethacin (2.67 μg/ml) were added to the buffer to avoid the contribution of histamine receptors and cyclooxygenase products to the contraction. To record responses one end of the tracheal chain was attached to a Gould-Statham UC-2 force displacement transducer which was connected to a Beckman Type R-dynograph.The preparations were allowed to equilibrate for one hour during which time the tissues were automatically washed (10 ml volume displacement) every 6 minutes.
After the equilibration period the tissues were primed with methacholine (3 μg/ml; 1.5×10^-5 M), washed and allowed to recover to baseline. The tissues were treated again with a second dose of methacholine, washed, allowed to return to baseline and washed for an additional hour.
Two chains were used as a control. These were incubated in a concentration of egg albumin sufficient to induce an average contraction of 50-80% of the methacholine response.
Each compound to be tested was added to two other baths (at a final concentration in each bath of 10 μg/ml) 15 minutes prior to challenging the fresh chains with egg albumin.
The response of the challenged tissue was expressed as a percentage of the methacholine maximum. The % inhibition for each compound was then calculated. Compounds which at 10 μg/ml (final conc.) inhibited the egg albumin response by 50% or more were retested at a lower concentration.

In the case of `O=c1ccc2nc3ccccc3sc-2c1` [Test No. 4], the 50% inhibitory concentration (IC50) in experiment [1] is 46.9 nM; in experiment [2] it was 0.1 µg/mL (≈ 0.469 µM). The “In Vitro Antigen Challenge Test % Inhibition” value in experiment [3] (0.3 μg (μg/ml)) worked out at 42%; in experiment [3] (1 μg (μg/ml)), 77%; in experiment [3] (10 μg (μg/ml)) it was 100%.

With `O=c1c(Cl)cc2nc3ccccc3sc-2c1Cl` [Test No. 5], the inhibition at 0.05 µg/mL in experiment [1] (at 0.05 μg/ml, read-out: RBL-1, % at stated concentration) stood at 65%.

For the compound `O=c1ccc2nc3ccccc3sc-2c1Cl` [drawing 26], the half-inhibitory concentration (IC50) in experiment [1] is 40.4 nM; in experiment [2], 0.2 µg/mL (≈ 0.807 µM). The “In Vitro Antigen Challenge Test % Inhibition” value in experiment [3] (1 μg (μg/ml)) is 44%; in experiment [3] (10 μg (μg/ml)) it was 100%.
